We go through three compounds from ChEMBL document CHEMBL1909046, “DrugMatrix in vitro pharmacology data”.

Assay [1] has as its target Sigma non-opioid intracellular receptor 1 (Homo sapiens, UniProt Q99720). The assay is described as follows: DRUGMATRIX: Sigma1 radioligand binding (ligand: [3H] Haloperidol). Type of assay: cell membranes, Jurkat, Membrane. The settings on record: Not Active = under 50% inhibition at 10 µM.
In the next assay the target is T1, Cytochrome P450 1A2 (Homo sapiens, UniProt P05177). Note: in other assays of this panel Not Active means under 50% inhibition at 10 µM.
T1 sequence (P05177 whole entry): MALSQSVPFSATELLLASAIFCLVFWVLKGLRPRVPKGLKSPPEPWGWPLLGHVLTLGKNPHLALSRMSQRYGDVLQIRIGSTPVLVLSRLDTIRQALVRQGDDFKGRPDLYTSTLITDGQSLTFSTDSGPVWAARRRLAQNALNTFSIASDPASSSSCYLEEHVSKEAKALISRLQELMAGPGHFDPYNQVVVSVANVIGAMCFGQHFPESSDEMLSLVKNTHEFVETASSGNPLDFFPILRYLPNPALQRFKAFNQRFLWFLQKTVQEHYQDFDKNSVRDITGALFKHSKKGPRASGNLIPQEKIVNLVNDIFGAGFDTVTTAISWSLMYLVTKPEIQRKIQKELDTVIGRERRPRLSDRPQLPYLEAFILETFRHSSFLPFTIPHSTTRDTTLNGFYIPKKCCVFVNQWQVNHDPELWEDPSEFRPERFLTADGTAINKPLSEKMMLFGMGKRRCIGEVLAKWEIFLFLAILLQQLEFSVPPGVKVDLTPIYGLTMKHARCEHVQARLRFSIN

For a further assay, the target named is Cytochrome P450 2D6 (Homo sapiens, UniProt P10635). Note: in other assays of this panel Not Active means under 50% inhibition at 10 µM.
Assay [2] can be described thus: DRUGMATRIX: beta-Lactamase enzyme inhibition (substrate: Nitrocefin). Also noted: species or system Bacillus cereus. The settings on record: Not Active = under 50% inhibition at 10 µM.
Assay [3] can be described thus: DRUGMATRIX: Glutamate, NMDA, Phencyclidine radioligand binding (ligand: [3H] TCP). Type of assay: cell membranes, Rattus norvegicus, Wistar, Cerebral cortex, Membrane. The settings on record: Not Active = under 50% inhibition at 10 µM.
The target in a further assay is T2, Androgen receptor (Rattus norvegicus, UniProt P15207). Note: in other assays of this panel Not Active means under 50% inhibition at 10 µM.
T2 sequence (P15207 whole entry): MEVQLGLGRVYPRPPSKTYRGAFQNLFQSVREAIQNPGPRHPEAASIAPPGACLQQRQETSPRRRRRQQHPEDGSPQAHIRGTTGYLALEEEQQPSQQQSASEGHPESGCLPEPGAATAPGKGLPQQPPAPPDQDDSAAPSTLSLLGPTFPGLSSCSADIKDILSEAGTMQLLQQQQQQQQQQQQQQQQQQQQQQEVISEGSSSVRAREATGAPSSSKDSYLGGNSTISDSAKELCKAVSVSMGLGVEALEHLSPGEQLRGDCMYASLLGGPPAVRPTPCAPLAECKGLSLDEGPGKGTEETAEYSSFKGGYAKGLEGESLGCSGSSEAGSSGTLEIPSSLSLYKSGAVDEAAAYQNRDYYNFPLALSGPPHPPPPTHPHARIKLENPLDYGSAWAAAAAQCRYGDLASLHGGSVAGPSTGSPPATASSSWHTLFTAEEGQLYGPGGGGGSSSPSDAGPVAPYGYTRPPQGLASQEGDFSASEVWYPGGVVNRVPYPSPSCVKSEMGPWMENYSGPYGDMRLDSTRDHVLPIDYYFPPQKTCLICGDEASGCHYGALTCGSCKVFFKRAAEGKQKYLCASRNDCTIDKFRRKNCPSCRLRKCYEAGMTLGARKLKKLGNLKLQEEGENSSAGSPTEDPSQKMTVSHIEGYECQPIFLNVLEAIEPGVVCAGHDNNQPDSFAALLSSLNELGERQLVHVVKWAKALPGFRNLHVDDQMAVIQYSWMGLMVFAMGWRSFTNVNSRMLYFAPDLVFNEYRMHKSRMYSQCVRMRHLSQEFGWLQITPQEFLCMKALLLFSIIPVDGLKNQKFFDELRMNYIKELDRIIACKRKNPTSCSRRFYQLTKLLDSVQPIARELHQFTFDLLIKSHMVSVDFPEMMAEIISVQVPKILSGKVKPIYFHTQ

Assay [4] can be described thus: DRUGMATRIX: Glutamate, NMDA, Agonism radioligand binding (ligand: [3H] CGP-39653). It is filed as cell membranes, Rattus norvegicus, Wistar, Cerebral cortex, Membrane. The settings on record: Not Active = under 50% inhibition at 10 µM.
Assay [5] can be described thus: DRUGMATRIX: Calcium Channel Type L, Benzothiazepine radioligand binding (ligand: [3H] Diltiazem). It is filed as cell membranes, Rattus norvegicus, Wistar, Brain, Membrane. The settings on record: Not Active = under 50% inhibition at 10 µM.

Molecules are shown by their SMILES.

Chain of Sigma non-opioid intracellular receptor 1 (Q99720 whole entry): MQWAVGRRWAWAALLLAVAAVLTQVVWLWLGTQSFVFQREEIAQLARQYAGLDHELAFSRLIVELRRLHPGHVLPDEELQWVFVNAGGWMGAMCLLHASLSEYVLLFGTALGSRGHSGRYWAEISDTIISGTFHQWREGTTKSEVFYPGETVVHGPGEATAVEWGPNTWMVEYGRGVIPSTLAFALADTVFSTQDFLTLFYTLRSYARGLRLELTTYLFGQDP
Chain of Cytochrome P450 2D6 (P10635 whole entry): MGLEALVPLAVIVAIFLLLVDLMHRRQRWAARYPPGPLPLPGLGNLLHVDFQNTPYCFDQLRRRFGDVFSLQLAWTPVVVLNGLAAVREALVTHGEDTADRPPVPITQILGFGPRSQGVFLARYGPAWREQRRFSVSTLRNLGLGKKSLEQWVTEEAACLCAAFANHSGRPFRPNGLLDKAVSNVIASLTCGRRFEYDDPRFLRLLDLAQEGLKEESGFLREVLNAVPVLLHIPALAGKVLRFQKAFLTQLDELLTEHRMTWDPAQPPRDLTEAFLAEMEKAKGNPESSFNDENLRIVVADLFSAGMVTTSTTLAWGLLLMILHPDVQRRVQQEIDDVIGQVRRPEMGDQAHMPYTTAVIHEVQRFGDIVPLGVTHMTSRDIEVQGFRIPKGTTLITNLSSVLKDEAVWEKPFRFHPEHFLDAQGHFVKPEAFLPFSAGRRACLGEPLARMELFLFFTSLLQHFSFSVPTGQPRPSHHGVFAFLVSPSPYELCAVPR

In general, IC50 refers to the concentration that inhibits the measured activity by half. For orientation: Ki means the equilibrium dissociation constant of an inhibitor or competing ligand from its target. Consider `Clc1ccc(COC(Cn2ccnc2)c2ccc(Cl)cc2Cl)cc1` (stereo not given) [ECONAZOLE], for which the IC50 worked out at 21.1 µM in assay [1] (read-out: IC50), 0.3 µM against Cytochrome P450 1A2 and 0.4 µM against Cytochrome P450 2D6. For the same compound, the inhibition constant Ki in assay [1] (read-out: Ki) stood at 8.87 µM.
As to `NC(=O)N1C(=O)/C(=C(\O)c2cccs2)c2cc(Cl)ccc21` [TENIDAP], the IC50 result was “Not Active” in assay [1] (jurkat); “Not Active” in assay [2]; 1 µM against Cytochrome P450 1A2; “Not Active” in assay [3]; “Not Active” at Androgen receptor; “Not Active” in assay [4]. Besides, the half-maximal inhibitory concentration (IC50) result in assay [5] was “Not Active”. Further, the Ki entry in assay [2], in assay [3], in assay [4] and in assay [5] was “Not Active” each time.
On to `O=C(Nc1ccc(Br)cc1)c1cc(Br)cc(Br)c1O` [TRIBROMSALAN], for which the concentration for half-maximal inhibition (IC50) entry in assay [1] (jurkat) was “Not Active”; in assay [2], “Not Active”; on Cytochrome P450 1A2 it was 2 µM; in assay [3] it was “Not Active”; in assay [4], “Not Active”; in assay [5] it was “Not Active”. Further, the Ki result in assay [2], in assay [3], in assay [4] and in assay [5] was “Not Active” throughout.
